Laboratory results taken from patent publication US20110098296A1, “Thiazole And Oxazole Kinase Inhibitors” (priority 2007, published 2011).
Counter-ions that a name gives are not always drawn.

Assays:
HT-29 tumor cells = assay: Method C: Cell Growth Inhibition Assay (CellTiter-Glo), HT-29; format: cell-based; settings: Homo sapiens, HT-29, 72 h, 3 days, 4-parameter fit
Protocol: (§1) Human breast tumor cells (BT474) were cultured in RPMI (Mediatech 50-011-PB), containing 10% FBS (JRH Biosciences 12176) and 1% penicillin-streptomycin (Invitrogen 15140). Human head and neck tumor cells (HN5) were cultured in high glucose DMEM (Mediatech 50-013-PB) containing 10% FBS and 1% penicillin-streptomycin. Human colon tumor cells (Colo205) were cultured in RPMI (Mediatech 50-020-PB) containing 10% FBS and 1% penicillin-streptomycin. Human melanoma cancer cells (SK-MEL-28) were cultured in EMEM with nonessential amino acids (Mediatech 50-011-PB) containing 10% FBS, 1% sodium pyruvate (JT Baker 3354-04), and 1% penicillin-streptomycin. Human melanoma cancer cells (A375P F11s) were cultured in RPMI (Mediatech 50-020-PB) containing 10% FBS, 1% sodium pyruvate, and 1% penicillin-streptomycin. Human colon cancer cells (HT-29) were cultured in high glucose DMEM (Mediatech 50-013-PB) containing 10% FBS and 1% penicillin-streptomycin. Human melanoma cancer cells (SK-MEL-3) were cultured in McCoy's 5A (50-025-PB) containing 15% FBS, and 1% penicillin-streptomycin. All cell lines were maintained at 37° C. in a humidified 5% CO2, 95% air incubator. Cells were harvested using trypsin/EDTA (Invitrogen 25200), counted using an haemocytometer, and plated. For 96-well assays (using white full-area NUNC plates cat. #136102), cells were plated in 105 μL at the following densities (cells/well): HN5, 500; Colo205, 500; SK-MEL-28, 500; A375P-F11s, 500; HT-29, 500; SK-MEL-3, 500; and BT474, 3000. For 384-well assays (white full-area NUNC plates, cat. #781080), cells were plated in 48 μL at the following densities (cells/well): HN5, 500; Colo205, 500; SK-MEL-28, 500; A375P-F11s, 500; HT29, 500; SK-MEL-3, 500; and BT474, 2000.
(§2) The next day, compounds were diluted as follow: For 96-well assays, 13.5 μL of compound in DMSO were diluted using nine (9) serial 1:3 dilutions of 4.5 μL in 9 μL of DMSO. Medium (270 μl/well of RPMI with 10% FBS and 1% penicillin-streptomycin) was added to the plates. Aliquots (7 μl) were added to cells in the final assay giving a final DMSO concentration of 0.2%. For 384-well assays, 15 μL of compound in DMSO were diluted using nine (9) serial 1:3 dilutions of 5 μL in 10 μL of DMSO, followed by a further dilution of 5 μL of compound with 95 μL of medium, of which 2 μL were added to cells in the final assay giving a final DMSO concentration of 0.2%. Cells were incubated at 37° C., 5% CO2 for 3 days.
(§3) Total ATP was measured (as a surrogate estimate of cell number) using CellTiter-Glo® reagent (Promega G7571). Briefly, plates were removed from the incubator and allowed to equilibrate to room temperature for 30 minutes. CellTiter-Glo® (25 μL or 55 μL for 384-well or 96-well assays, respectively) reagent was added to each well and plates were shaken on an orbital plate shaker for 2 mins. Plates were incubated without shaking for a further 30 mins and read on an LJL Analyst GT reader in luminometer mode with an integration time of 0.5 seconds per well. Percent inhibition of cell growth was calculated relative to DMSO vehicle-treated control wells. Concentration of compound required to give 50% inhibition of vehicle-treated control cell growth (IC50) was interpolated using a 4-parameter fit for determining IC50 using the following equation: Y=A+((B−A)/(1+((C/X)̂D))) where X=IC50.

ErbB2 = target: T1, ErbB2 (Homo sapiens, UniProt P04626); assay: ErbB-2 substrate phosphorylation assay (HTRF); format: biochemical; settings: Method (A): Enzyme Mix incubated with compound at 20° C. for 1 hr, reaction started by adding Substrate Mix
T1 construct: made in house; host or cells: baculovirus expression system
Procedure, shortened: (§4)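 Baculovirus-expressed kinase (0.8 nM EGFR or 10 nM ErbB2 in enzyme mix) with Peptide C 0.8 μM and ATP 20 μM (substrate-mix levels), MOPS pH 7.5, MnCl2; 90 min, 20 °C, HTRF anti-phosphotyrosine. Method A adds 1 h enzyme–compound preincubation; B none. pIC50, final compound 0.00027–47.6 μM.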

SK-MEL-28 tumor cells = assay: Method C: Cell Growth Inhibition Assay (CellTiter-Glo), SK-MEL-28; format: cell-based; settings: Homo sapiens, SK-MEL-28, 72 h, 3 days, 4-parameter fit
Procedure, shortened: (§5)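 Cells plated at 500 cells/well, dosed next day with 10-point 1:3 dilution series (0.2% final DMSO) and grown 3 days at 37 °C, 5% CO2. CellTiter-Glo luminescence (total ATP) served as cell-number surrogate; inhibition relative to DMSO controls, IC50 interpolated by 4-parameter fit.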

HN5 tumor cells = assay: Method C: Cell Growth Inhibition Assay (CellTiter-Glo), HN5; format: cell-based; settings: Homo sapiens, 72 h, 3 days, 4-parameter fit
Procedure, shortened: as §5

Colo205 tumor cells = assay: Method C: Cell Growth Inhibition Assay (CellTiter-Glo), Colo205; format: cell-based; settings: Homo sapiens, COLO 205, 72 h, 3 days, 4-parameter fit
Procedure, shortened: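 Plating at 500 cells/well is followed the next day by addition of compound as a 1:3 serial dilution series. After 3 days' incubation, CellTiter-Glo luminescence is read and IC50 is calculated versus DMSO wells.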

EGFR = target: T2, EGFR (Homo sapiens, UniProt P00533); assay: EGFR substrate phosphorylation assay (HTRF); format: biochemical; settings: Method (A): Enzyme Mix incubated with compound at 20° C. for 1 hr, reaction started by adding Substrate Mix
T2 construct: made in house; host or cells: baculovirus expression system
Procedure, shortened: as §4

SK-MEL-3 tumor cells = assay: Method C: Cell Growth Inhibition Assay (CellTiter-Glo), SK-MEL-3; format: cell-based; settings: Homo sapiens, SK-MEL3, 72 h, 3 days, 4-parameter fit
Protocol: as §1, §2, §3

BT474 tumor cells = assay: Method C: Cell Growth Inhibition Assay (CellTiter-Glo), BT474; format: cell-based; settings: Homo sapiens, BT-474, 72 h, 3 days, 4-parameter fit
A375P F11s tumor cells = assay: Method C: Cell Growth Inhibition Assay (CellTiter-Glo), A375P F11s; format: cell-based; settings: Homo sapiens, 72 h, 3 days, 4-parameter fit
Protocol: as §1, §2, §3

T2 sequence (P00533 25-1210): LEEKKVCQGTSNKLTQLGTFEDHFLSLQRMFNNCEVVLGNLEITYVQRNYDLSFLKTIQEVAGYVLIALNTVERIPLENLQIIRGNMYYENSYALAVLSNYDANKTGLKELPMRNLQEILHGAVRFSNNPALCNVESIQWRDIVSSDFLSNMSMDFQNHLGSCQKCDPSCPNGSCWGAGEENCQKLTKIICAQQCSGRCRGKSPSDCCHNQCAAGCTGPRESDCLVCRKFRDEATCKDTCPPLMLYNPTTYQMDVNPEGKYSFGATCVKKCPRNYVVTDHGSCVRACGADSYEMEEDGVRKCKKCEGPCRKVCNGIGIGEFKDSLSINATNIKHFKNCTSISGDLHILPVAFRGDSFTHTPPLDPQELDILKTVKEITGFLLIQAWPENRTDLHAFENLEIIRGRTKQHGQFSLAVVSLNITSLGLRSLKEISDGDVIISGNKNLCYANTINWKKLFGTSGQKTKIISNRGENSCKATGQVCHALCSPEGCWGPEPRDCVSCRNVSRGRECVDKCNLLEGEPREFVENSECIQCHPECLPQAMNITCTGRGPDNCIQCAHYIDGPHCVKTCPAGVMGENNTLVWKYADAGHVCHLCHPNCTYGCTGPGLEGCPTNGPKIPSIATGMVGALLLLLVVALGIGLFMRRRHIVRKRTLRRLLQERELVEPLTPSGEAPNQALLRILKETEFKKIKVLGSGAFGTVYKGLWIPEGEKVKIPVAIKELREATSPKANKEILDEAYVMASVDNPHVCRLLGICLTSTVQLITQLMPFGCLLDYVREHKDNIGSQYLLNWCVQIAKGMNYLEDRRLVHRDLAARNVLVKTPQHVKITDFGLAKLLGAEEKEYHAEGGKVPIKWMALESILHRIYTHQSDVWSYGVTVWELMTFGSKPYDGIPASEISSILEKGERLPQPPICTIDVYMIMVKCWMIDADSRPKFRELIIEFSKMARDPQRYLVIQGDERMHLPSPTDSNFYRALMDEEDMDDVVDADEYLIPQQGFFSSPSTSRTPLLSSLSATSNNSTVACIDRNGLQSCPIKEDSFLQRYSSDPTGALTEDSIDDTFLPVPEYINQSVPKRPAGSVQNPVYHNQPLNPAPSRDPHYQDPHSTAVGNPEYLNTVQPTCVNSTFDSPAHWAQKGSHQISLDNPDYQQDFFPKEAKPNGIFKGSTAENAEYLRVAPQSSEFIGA
T1 sequence (P04626 23-1255): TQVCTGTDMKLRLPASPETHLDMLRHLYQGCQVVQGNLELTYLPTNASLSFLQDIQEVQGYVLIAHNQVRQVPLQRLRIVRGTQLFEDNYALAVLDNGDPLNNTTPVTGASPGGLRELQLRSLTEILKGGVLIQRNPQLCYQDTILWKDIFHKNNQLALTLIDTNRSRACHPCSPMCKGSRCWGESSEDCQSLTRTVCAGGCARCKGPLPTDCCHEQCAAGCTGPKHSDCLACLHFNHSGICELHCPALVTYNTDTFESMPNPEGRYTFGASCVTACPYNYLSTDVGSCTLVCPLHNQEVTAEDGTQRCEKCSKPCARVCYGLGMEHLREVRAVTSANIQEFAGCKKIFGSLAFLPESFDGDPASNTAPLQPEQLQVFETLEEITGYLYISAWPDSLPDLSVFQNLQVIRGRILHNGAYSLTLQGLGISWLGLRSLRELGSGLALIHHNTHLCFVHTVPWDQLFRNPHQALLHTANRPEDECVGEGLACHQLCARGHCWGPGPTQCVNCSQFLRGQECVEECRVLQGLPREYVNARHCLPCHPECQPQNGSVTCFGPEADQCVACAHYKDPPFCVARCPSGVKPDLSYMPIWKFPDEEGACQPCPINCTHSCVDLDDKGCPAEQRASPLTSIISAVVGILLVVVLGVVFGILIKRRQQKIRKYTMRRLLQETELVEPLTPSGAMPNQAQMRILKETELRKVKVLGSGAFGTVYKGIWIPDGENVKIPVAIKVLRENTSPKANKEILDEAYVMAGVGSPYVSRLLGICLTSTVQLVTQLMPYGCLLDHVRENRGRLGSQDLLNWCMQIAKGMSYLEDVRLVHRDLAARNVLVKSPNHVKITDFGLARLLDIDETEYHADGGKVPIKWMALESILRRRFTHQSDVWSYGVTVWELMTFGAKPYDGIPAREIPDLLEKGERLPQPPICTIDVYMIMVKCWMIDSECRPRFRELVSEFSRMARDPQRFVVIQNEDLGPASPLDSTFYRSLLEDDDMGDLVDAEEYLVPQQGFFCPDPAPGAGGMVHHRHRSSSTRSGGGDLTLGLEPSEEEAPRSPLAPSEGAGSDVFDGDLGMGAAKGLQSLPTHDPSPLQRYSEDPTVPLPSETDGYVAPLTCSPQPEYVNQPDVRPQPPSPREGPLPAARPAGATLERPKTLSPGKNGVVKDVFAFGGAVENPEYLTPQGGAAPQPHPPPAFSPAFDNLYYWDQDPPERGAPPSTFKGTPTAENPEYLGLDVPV

| IC50 (HT-29 tumor cells) | IC50 (ErbB2) | IC50 (SK-MEL-28 tumor cells) | IC50 (HN5 tumor cells) | IC50 (Colo205 tumor cells) | IC50 (EGFR) | IC50 (SK-MEL-3 tumor cells) | IC50 (BT474 tumor cells) | IC50 (A375P F11s tumor cells) | Structure (SMILES) |
| --- | --- | --- | --- | --- | --- | --- | --- | --- | --- |
| > 1000 nM | < 100 nM | > 1000 nM | > 1000 nM | > 1000 nM | < 100 nM | > 1000 nM | > 1000 nM | > 1000 nM | CN(C)CCOc1cccc(Nc2nccc(-c3scnc3-c3cccc(NC(=O)Cc4cccs4)c3)n2)c1 [Example 84, N-[3-(5-{2-[(3-{[2-(Dimethylamino)ethyl]oxy}phenyl)amino]-4-pyrimidinyl}-1,3-thiazol-4-yl)phenyl]-2-(2-thienyl)acetamide] |
| 100 to 1000 nM | < 100 nM | > 1000 nM | < 100 nM | 100 to 1000 nM | < 100 nM | 100 to 1000 nM | < 100 nM | 100 to 1000 nM | CNc1nc(-c2cccc(NC(=O)c3c(F)cccc3F)c2)c(-c2ccnc(Nc3cccc(CN4CCCC4)c3)n2)s1 [Example 23, 2,6-Difluoro-N-{3-[2-(methylamino)-5-(2-{[3-(1-pyrrolidinylmethyl)phenyl]amino}-4-pyrimidinyl)-1,3-thiazol-4-yl]phenyl}benzamide] |
| 100 to 1000 nM | < 100 nM | 100 to 1000 nM | 100 to 1000 nM | 100 to 1000 nM | < 100 nM | > 1000 nM | 100 to 1000 nM | 100 to 1000 nM | CN(C)CCOc1ccc(Nc2nccc(-c3sc(N(C)C)nc3-c3cccc(NC(=O)c4c(F)cccc4F)c3)n2)cc1Cl [Example 37, N-{3-[5-{2-[(3-Chloro-4-{[2-(dimethylamino)ethyl]oxy}phenyl)amino]-4-pyrimidinyl}-2-(dimethylamino)-1,3-thiazol-4-yl]phenyl}-2,6-difluorobenzamide] |
| > 1000 nM | < 100 nM | > 1000 nM | > 1000 nM | > 1000 nM | < 100 nM | > 1000 nM | > 1000 nM | > 1000 nM | Cc1nc(-c2cccc(NC(=O)c3cccc(C(F)(F)F)c3)c2)c(-c2ccnc(Nc3ccc4c(c3)CN(C)CC4)n2)s1 [Example 131, N-[3-(2-Methyl-5-{2-[(2-methyl-1,2,3,4-tetrahydro-7-isoquinolinyl)amino]-4-pyrimidinyl}-1,3-thiazol-4-yl)phenyl]-3-(trifluoromethyl)benzamide] |
| 100 to 1000 nM | < 100 nM | 100 to 1000 nM | 100 to 1000 nM | 100 to 1000 nM | < 100 nM | 100 to 1000 nM | 100 to 1000 nM | 100 to 1000 nM | CCNc1nc(-c2cccc(NC(=O)c3c(F)cccc3F)c2)c(-c2ccnc(Nc3ccc(CCN4CCCC4)c(F)c3)n2)s1 [Example 26, N-(3-{2-(Ethylamino)-5-[2-({3-fluoro-4-[2-(1-pyrrolidinyl)ethyl]phenyl}amino)-4-pyrimidinyl]-1,3-thiazol-4-yl}phenyl)-2,6-difluorobenzamide trifluoroacetate] |
| 100 to 1000 nM | < 100 nM | 100 to 1000 nM | 100 to 1000 nM | 100 to 1000 nM | < 100 nM | > 1000 nM | 100 to 1000 nM | 100 to 1000 nM | CCc1nc(-c2cccc(NC(=O)c3c(F)cccc3F)c2)c(-c2ccnc(Nc3ccc(OCCN(C)C)c(Cl)c3)n2)s1 [Example 114, N-[3-(5-{2-[(3-Chloro-4-{[2-(dimethylamino)ethyl]oxy}phenyl)amino]-4-pyrimidinyl}-2-ethyl-1,3-thiazol-4-yl)phenyl]-2,6-difluorobenzamide] |
| 100 to 1000 nM | < 100 nM | > 1000 nM | < 100 nM | 100 to 1000 nM | < 100 nM | 100 to 1000 nM | < 100 nM | > 1000 nM | O=C(Nc1cccc(-c2ncsc2-c2ccnc(Nc3cccc(CN4CCCC4)c3)n2)c1)c1c(F)cccc1F [Example 94, 2,6-Difluoro-N-{3-[5-(2-{[3-(1-pyrrolidinylmethyl)phenyl]amino}-4-pyrimidinyl)-1,3-thiazol-4-yl]phenyl}benzamide] |
| 100 to 1000 nM | < 100 nM | > 1000 nM | < 100 nM | 100 to 1000 nM | < 100 nM | > 1000 nM | < 100 nM | 100 to 1000 nM | CCN(CC)CCOc1cccc(Nc2nccc(-c3sc(N)nc3-c3cccc(NC(=O)c4c(F)cccc4F)c3)n2)c1 [Example 17, N-(3-{2-Amino-5-[2-({3-[2-(diethylamino)ethoxy]phenyl}amino)pyrimidiN-4-yl]-1,3-thiazol-4-yl}phenyl)-2,6-difluorobenzamide] |
| 100 to 1000 nM | < 100 nM | 100 to 1000 nM | 100 to 1000 nM | 100 to 1000 nM | < 100 nM | 100 to 1000 nM | 100 to 1000 nM | 100 to 1000 nM | CN(C)c1nc(-c2cccc(NC(=O)c3c(F)cccc3F)c2)c(-c2ccnc(Nc3ccc(OCCN4CCCC4)c(Cl)c3)n2)s1 [Example 40, N-{3-[5-{2-[(3-Chloro-4-{[2-(1-pyrrolidinyl)ethyl]oxy}phenyl)amino]-4-pyrimidinyl}-2-(dimethylamino)-1,3-thiazol-4-yl]phenyl}-2,6-difluorobenzamide] |
| 100 to 1000 nM | < 100 nM | > 1000 nM | < 100 nM | 100 to 1000 nM | < 100 nM | 100 to 1000 nM | < 100 nM | 100 to 1000 nM | CN(C)C1Cc2ccc(Nc3nccc(-c4sc(N)nc4-c4cccc(NC(=O)c5c(F)cccc5F)c4)n3)cc2C1 (stereo not drawn) [Example 12, N-{3-[2-Amino-5-(2-{[2-(dimethylamino)-2,3-dihydro-1H-indeN-5-yl]amino}-4-pyrimidinyl)-1,3-thiazol-4-yl]phenyl}-2,6-difluorobenzamide] |
| 100 to 1000 nM | < 100 nM | > 1000 nM | 100 to 1000 nM | 100 to 1000 nM | < 100 nM | > 1000 nM | < 100 nM | 100 to 1000 nM | CCc1nc(-c2cccc(NC(=O)c3c(F)cccc3F)c2)c(-c2ccnc(Nc3ccc(OCCN(C)C)c(F)c3)n2)s1 [Example 112, N-[3-(5-{2-[(4-{[2-(Dimethylamino)ethyl]oxy}-3-fluorophenyl)amino]-4-pyrimidinyl}-2-ethyl-1,3-thiazol-4-yl)phenyl]-2,6-difluorobenzamide] |
